In a melting point compilation (Tetko et al.; mined from patent text by program, amines drawn as free bases though some values may be those of a salt):

melting point [°C]	SMILES
171 to 172	Nc1nc2ccccc2c2c1ncn2CCCCCS(=O)(=O)c1ccccc1
149 to 150	CC(O)CC(=O)c1cccc2c1nc(-c1c(F)cccc1F)n2Cc1c(F)cccc1F (stereo unspecified)
194 to 196	O=c1c(CCCc2ccncc2)cc2cccnc2n1-c1ccc2nsnc2c1
79 to 82.5	CCCCCCn1c(C)cc(C)c(C(=O)O)c1=O
122	O=C(c1ccccc1)c1cc(-c2ccncc2)c(N2CCOCC2)s1
258	O=C(O)c1ccc2cc(-c3ccc(CC(O)CO)c(C45CC6CC(CC(C6)C4)C5)c3)ccc2c1 (stereo unspecified)
146 to 147	COc1cc2c(cc1O)CCN(Cc1ccc(OC)c(OC)c1)C2
128	Cc1ccc(S(=O)(=O)Nc2ccc(N)c(C3CCCC3)c2)cc1
156 to 157	O=C1O[C@@H](CO)CN1c1ccc(N2C[C@@H]3C[C@H]2CS3)c(F)c1
58 to 60	CCN(CC)C(=O)n1nc(Oc2ncc(C(F)(F)F)cc2Cl)cc1C(F)(F)F
205 to 207	CC(C)(C)c1ccc(C(O)CCCn2ccnc2)cc1 (stereo unspecified)
154 to 155	CC1(C)C=Cc2cc(C#N)c([N+](=O)[O-])cc2O1
219 to 221	COc1ccc2c(c1)C(=O)C(=O)C1=C2OC2(CCN(Cc3ccc(F)cc3)CC2)CS1
124 to 125	CS(=O)(=O)c1ccc(C2=C(c3ccccc3)C(=O)C2(Cl)Cl)cc1
133 to 137	COC(=O)c1sc2c(c1O)CSC2
64	CC(C)(C)OC(=O)N1CCC(CO)(c2ccccc2)CC1
109 to 110	CCOC(Cc1ccc(NCc2ccc(O)cc2)cc1)C(=O)OC (stereo unspecified)
106 to 107	O=C(O)[C@@H]1CC2(CN1C(=O)CP(=O)(O)CCCCc1ccccc1)SCCS2
193 to 194	Cc1nc(Cc2ccccc2)c2c(c1O)COC(C(C)C)OC2 (stereo unspecified)
67 to 70	CCOCc1nc2c(NC(=O)C(C)C)nc3ccccc3c2n1CC(C)(C)NS(C)(=O)=O
109 to 110	COC(=O)CC(C#Cc1ccc(C(=O)O)cc1)c1ccc(OC)c(OC2CCCC2)c1 (racemic)
95 to 97	CC(C(=O)N(C)C)n1ccc(-c2cccs2)n1 (stereo unspecified)
210 to 212	COc1ccc(C=C2SC(=O)NC2=O)cc1C(=O)NCc1ccc(C(F)(F)F)cc1
143 to 145	NC(=O)CON=C(C(=O)O)c1ccco1

melting point [°C]	SMILES
251	CC(=O)NCc1ccc(-c2csc(NC(C)=O)n2)s1
136	OC(CON=C1CCCc2sccc21)CN1CCCC1 (stereo unspecified)
200 to 202	O=C(Nc1ccc(C(F)(F)F)cc1)C1=NN(c2ccc(Cl)nn2)C(c2ccc(F)cc2)C1 (stereo unspecified)
179 to 181	NNc1ccnc(-c2cccc(I)c2)n1
298	O=c1[nH]c2nc3ccccc3n2c(=O)n1CCc1ccccc1
70 to 72	CCCCCCCCNC(=O)CC(=O)c1c2ccccc2cc2ccccc12
225 to 227	CCOC(=O)C1C(=O)c2cc(OC)ccc2N=C1c1ccccc1 (stereo unspecified)
171 to 172	Cc1cccc(C(=O)NC(NC(=NC#N)Nc2cccnc2)C(C)(Cl)Cl)c1 (stereo unspecified)
143 to 144	CSc1c(CC(C)(C)C(=O)O)n(Cc2ccc(Cl)cc2)c2ccc(C(C)C)cc12
44 to 45	CCOC(=O)CC(=O)C(C)(C)Sc1ccccc1
64 to 66	CCSc1ccc(Oc2ccc(Cl)c(Cl)c2)nc1C#N
285 to 290	CC12CCC3c4ccc(C(=O)O)cc4CCC3C1CCC2C(=O)CCc1ccc(C(=O)O)cc1 (stereo unspecified)
171 to 172	Sc1ccc(-c2ccc(-c3ccc(S)c(S)c3)cc2)cc1S
114 to 116	CCCCNc1c(C(=O)OCC)cnc2c1c(C)nc1cc(C)nn12
206 to 207	CC(=O)Nc1ccc(C=CC2=NNC(=O)CC2C)cc1 (stereo unspecified)
196 to 198	COC(=O)c1cc2c(cc(C=O)c3ccccc32)s1
227 to 232	Cc1cc(-c2ccc(C(F)(F)F)nc2)cc(-c2cccc(-c3cccc(S(N)(=O)=O)c3)c2)n1
54 to 55	CC(C)(C)[Si](C)(C)OCCn1ccc(N)n1
163	C#CCOC(=O)C1=C(C)N(C)C(C)=C(C(=O)OCC#C)C1c1cccc(C(F)(F)F)c1
131 to 133	CC(C)n1nc(-c2sc(NC(=O)c3ccc(CN(C)CCN(C)C)cc3)nc2-c2ccccc2)ccc1=O
111	OCC1Cc2cccc(F)c2OC1CO (stereo unspecified)
243 to 245	COC(=O)c1ccc(OC(=O)c2ccc(C(=O)Oc3ccc(C(=O)OC)cc3)cc2)cc1
163 to 164	COc1ccc(C2(CCCCl)S(=O)CCCS2=O)cc1OC (stereo unspecified)
109 to 111	C#Cc1ccc(Nc2c(C(=O)c3ccccn3)ccc(F)c2F)c(F)c1

melting point [°C]	SMILES
131 to 135	OCc1cncn1Cc1ccccc1
> 300	O=[N+]([O-])c1cc2nc(O)c(O)nc2cc1C(F)(F)F
60 to 63	NC(=NCCN(Cc1ccc(F)cc1)c1ccccn1)NCCCc1c[nH]cn1
93 to 94	COc1ccc(C(=O)c2cc3ccccc3o2)cc1
184 to 186	Cc1ccc(C2CCN(C(=O)Nc3ccc4nc(CN(C(C)C)C(C)C)ccc4c3)CC2)cc1
164 to 166	CN1CCN(C2=Nc3cc(Br)ccc3-n3ccc4cccc2c43)CC1
> 260	COCc1c(C(=O)O)ncc2[nH]c3c(c12)CCCC3
117 to 118	O=C(O)CCc1cn(Cc2ccc(OCc3csc(-c4ccccn4)n3)cc2)cc1-c1ccccc1
187 to 191	CC(C)OC(=O)N1CCC(c2nc3cc(-c4ccc(-n5cnnn5)c(F)c4)ccc3o2)CC1
80 to 81	CCCCCCCCCCCCCCN(C)c1cc(OCC)c(N)cc1C(=O)O
230 to 233	N#CCc1c(C(=O)O)cc2ccc3c(c2c1-c1ccc(F)cc1)OCO3
147 to 148	CN(C)c1cnc(-c2cccc(Cl)c2Cl)c(N)n1
166	Nc1ncnc2c1c(-c1ccc(Oc3ccc(OCCO)cc3)cc1)cn2CCO
288 to 289	CCN1Cc2ccc(Cl)cc2-c2c(C(=O)N3CCOCC3)cc(-c3ccccc3)c(=O)n21
223 to 225	Cc1cc(-c2nnc3c4ccccc4c(OCc4ccc5ccccc5n4)nn23)no1
148 to 151	CCN(CC)CCOc1ccc(NC(=O)CC(=O)c2ccc(-c3ccccc3)cc2)cc1Cl
221 to 225	O=C1OCCn2c1cc(=O)c(O)c2C(O)c1ccc(F)cc1 (stereo unspecified)
108 to 112	O=C(O)Cc1ccc(OCCNC(=O)C2Cc3ccccc3N2S(=O)(=O)c2ccc(-c3cc(C(F)(F)F)ccc3Cl)cc2)c(Cl)c1 (stereo unspecified)
175 to 178	CN(C)C(=O)c1cc(N(C)C)cc(C(=O)N(C)C)n1
115 to 117	COc1ccc(C=O)c(Br)c1Oc1ccc([N+](=O)[O-])cc1
185 to 189	COc1ccc(-c2cc(=Nc3c(C)cc(C)cc3C)n(C)c(N3CCNCC3)n2)cc1OC
72	N#CC(Cl)=C(Cl)S(=O)(=O)c1ccccc1

SMILES	melting point [°C]
Cc1sc2c(c1C)C(c1ccc(Cl)cc1)=NC(CC(=O)O)c1nnc(C)n1-2 (stereo unspecified)	166 to 177
